Measured values published in ChEMBL document CHEMBL1201862, “PubChem BioAssay data set” (2004).
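Test compounds were applied to cells in 96-well plates for 48 hours at 5 doses. GI50 is the concentration that inhibits growth by half.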 Calls of active or inactive are those of the source. Cut-off read from the data, not from the text of the source: active = GI50 up to about 1.1 µM and inactive = higher. Where a SMILES comes first, the peptide text is derived from it. Non-standard residues stand in square brackets, D forms with d. Residues, ends and D or L forms follow the SMILES beside them. The star is where a group is joined. *: point of attachment. Benzoyl(4-OMe) = COc1ccc(C(=O)*)cc1; 2Thi = N[CH](Cc1cccs1)C(=O)O; Cbz = O=C(OCc1ccccc1)*

Assays:
Assay in all cases: inhibition of tumour cell growth, NCI panel, 48 h
[1] = tested on: MDA-MB-231
[2] = tested on: OVCAR-4
[3] = tested on: MCF7
[4] = tested on: CAKI-1
[5] = tested on: NCI-H460
[6] = tested on: SR
[7] = tested on: HCT-15
[8] = tested on: MDA-N
[9] = tested on: SF-268
[10] = tested on: SK-MEL-28
[11] = tested on: HCT-116
[12] = tested on: EKVX
[13] = tested on: MDA-MB-435
[14] = tested on: COLO 205
[15] = tested on: TK-10
[16] = tested on: 786-0
[17] = tested on: NCI/ADR-RES
[18] = tested on: HL-60
[19] = tested on: SF-539
[20] = tested on: HOP-92

Structure (SMILES) | GI50 [1] | GI50 [2] | GI50 [3] | GI50 [4] | GI50 [5] | GI50 [6] | GI50 [7] [µM] | GI50 [8] | GI50 [9] | GI50 [10] | GI50 [11] | GI50 [12] | GI50 [13] | GI50 [14] | GI50 [15] | GI50 [16] | GI50 [17] | GI50 [18] | GI50 [19] | GI50 [20]
CCOC(=O)CCC(NC(=O)CNC(=O)CNC(=O)C(CCC(=O)OCC)NC(=O)C(CCC(=O)OCC)NC(=O)C(CCC(=O)OCC)NC(=O)OCc1ccccc1)C(=O)NC(CCC(=O)OCC)C(=O)NC(CCC(=O)OCC)C(=O)OCC (stereo not given) (Cbz-E(OEt)E(OEt)E(OEt)GGE(OEt)E(OEt)E(OEt)-OEt; configuration not given here) | > 75 µM (inactive) | > 75 µM (inactive) | > 75 µM (inactive) | > 75 µM (inactive) | > 75 µM (inactive) | > 75 µM (inactive) | > 75 | > 75 µM (inactive) | > 75 µM (inactive) | > 75 µM (inactive) | > 75 µM (inactive) | > 75 µM (inactive) | > 75 µM (inactive) | > 75 µM (inactive) | > 75 µM (inactive) | > 75 µM (inactive) | > 75 µM (inactive) |  |  | 
Nc1ncnc2nc(N3CCN(CCO)CC3)[nH]c12 | > 100 µM (inactive) | > 100 µM (inactive) | > 100 µM (inactive) | > 100 µM (inactive) | > 100 µM (inactive) |  | > 100 | > 100 µM (inactive) | > 100 µM (inactive) | > 100 µM (inactive) | > 100 µM (inactive) | > 100 µM (inactive) | > 100 µM (inactive) | > 100 µM (inactive) | > 100 µM (inactive) | > 100 µM (inactive) | > 100 µM (inactive) | > 100 µM (inactive) | > 100 µM (inactive) | 
O=c1ccn(C2OC(CO)C(O)C2F)c(=O)n1Cc1ccccc1 (stereo not given) | > 100 µM (inactive) |  | > 100 µM (inactive) | > 100 µM (inactive) | > 10 µM (inactive) | > 100 µM (inactive) | > 100 | > 100 µM (inactive) | > 100 µM (inactive) | > 100 µM (inactive) | > 100 µM (inactive) | > 100 µM (inactive) | > 100 µM (inactive) | > 100 µM (inactive) | > 100 µM (inactive) | > 100 µM (inactive) | > 100 µM (inactive) | > 100 µM (inactive) | > 100 µM (inactive) | 
CCC(C)C(NC(=O)C(Cc1cccs1)NC(=O)C(CC(C)C)NC(=O)C(CC(C)C)NC(=O)C(CCCCN)NC(=O)C(CCCNC(=N)N)NC(=O)c1ccc(OC)cc1)C(=O)NC(CC(C)C)C(N)=O (stereo not given) ({Benzoyl(4-OMe)}-RKLL[2Thi]IL-NH2; configuration not given here) | > 100 µM (inactive) | > 100 µM (inactive) | > 100 µM (inactive) | > 100 µM (inactive) | > 100 µM (inactive) | > 100 µM (inactive) | > 100 | > 100 µM (inactive) | > 100 µM (inactive) | > 100 µM (inactive) | > 100 µM (inactive) | > 100 µM (inactive) | > 100 µM (inactive) | > 100 µM (inactive) | > 100 µM (inactive) | > 100 µM (inactive) | > 100 µM (inactive) |  | > 100 µM (inactive) | 
O=c1c2ccccc2[nH]c2c(Cl)cc(Cl)c(N3CCCCC3)c12 | 33.6 µM (inactive) | 71.6 µM (inactive) | 20.7 µM (inactive) | 30.5 µM (inactive) |  | 36.5 µM (inactive) | 44.8 | 24.3 µM (inactive) |  | 58.5 µM (inactive) | 46.3 µM (inactive) | 28.9 µM (inactive) | 22.8 µM (inactive) | 37.8 µM (inactive) | 39.7 µM (inactive) | > 10 µM (inactive) | 25.6 µM (inactive) | 37.5 µM (inactive) | 21.9 µM (inactive) | 
CC(C)(C)c1cc(/C=C/C(=O)CC(=O)/C=C/c2cc(C(C)(C)C)c(O)c(C(C)(C)C)c2)cc(C(C)(C)C)c1O | > 50 µM (inactive) | > 50 µM (inactive) | > 50 µM (inactive) |  | > 50 µM (inactive) |  | > 50 | > 50 µM (inactive) | > 50 µM (inactive) | > 50 µM (inactive) | > 50 µM (inactive) | > 50 µM (inactive) | > 50 µM (inactive) | > 50 µM (inactive) | > 50 µM (inactive) | > 50 µM (inactive) | > 50 µM (inactive) | > 50 µM (inactive) | > 50 µM (inactive) | 
O=C1c2cc(Cl)ccc2N=C(NCCCl)C2CSCN12 (stereo not given) | > 100 µM (inactive) | > 100 µM (inactive) | > 100 µM (inactive) | > 100 µM (inactive) | > 100 µM (inactive) | 52.8 µM (inactive) | > 100 | > 100 µM (inactive) | > 100 µM (inactive) | > 100 µM (inactive) | > 100 µM (inactive) | > 100 µM (inactive) | > 100 µM (inactive) | > 100 µM (inactive) | > 100 µM (inactive) | > 100 µM (inactive) | > 100 µM (inactive) |  |  | 
NC(=O)Nc1c(Cl)cc(S(N)(=O)=O)cc1Cl | > 100 µM (inactive) | > 100 µM (inactive) | > 100 µM (inactive) | > 100 µM (inactive) |  |  | > 100 | > 100 µM (inactive) | > 100 µM (inactive) | > 100 µM (inactive) | > 100 µM (inactive) | > 100 µM (inactive) | > 100 µM (inactive) | > 100 µM (inactive) | > 100 µM (inactive) | > 100 µM (inactive) | > 100 µM (inactive) | > 100 µM (inactive) | > 100 µM (inactive) | > 100 µM (inactive)
